Biological target: T1, HMG-CoA synthase (Rattus norvegicus, UniProt P17425)
T1 construct: The livers from male Charles River CD rats (225-350 g) were homogenized in 0.25 M sucrose; from tissue; host or cells: rat liver (male Charles River CD rats), 100,000×g supernatant, ammonium sulfate precipitate, DEAE-52 fraction
T1 sequence (P17425 1-520): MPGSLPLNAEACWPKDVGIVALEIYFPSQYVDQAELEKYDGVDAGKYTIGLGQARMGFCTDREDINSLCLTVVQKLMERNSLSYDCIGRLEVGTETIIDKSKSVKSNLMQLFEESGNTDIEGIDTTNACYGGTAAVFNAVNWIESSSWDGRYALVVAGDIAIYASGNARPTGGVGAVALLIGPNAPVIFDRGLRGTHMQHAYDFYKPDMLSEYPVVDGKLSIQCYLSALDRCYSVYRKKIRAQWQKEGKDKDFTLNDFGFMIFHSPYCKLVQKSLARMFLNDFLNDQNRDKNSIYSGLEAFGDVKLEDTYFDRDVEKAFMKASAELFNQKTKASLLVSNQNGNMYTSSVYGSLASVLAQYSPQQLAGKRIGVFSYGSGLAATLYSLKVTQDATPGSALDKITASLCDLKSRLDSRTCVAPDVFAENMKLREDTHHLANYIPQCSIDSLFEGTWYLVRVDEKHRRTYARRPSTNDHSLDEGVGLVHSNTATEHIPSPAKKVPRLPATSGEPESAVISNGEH
Assay: HMG-CoA Synthase Inhibition Assay
Type: biochemical
Conditions: for IC50: in vitro, enzyme from rat liver
Method: The intrinsic HMG-CoA synthase inhibition activity of the compounds of this invention is measured by the standard in vitro protocol described below:
The livers from male Charles River CD rats (225-350 g) were homogenized in 0.25 M sucrose which was adjusted with phenylmethylsulfonylfluoride (PMSF) and N-p-tosyl-1-lysine chloromethyl ketone (TLCK) so that the final concentration of each was […], respectively. The homogenate was centrifuged at 15,000×g for 20 minutes, the supernatant filtered through a fine nylon screen to remove most of the fat layer and recentrifuged at 100,000×g for 1 hour. This supernatant was removed and 1 M potassium phosphate, dithiothreitol (DTT) and ethylene glycol-bis(β-aminoethyl ether)-N,N,N',N'-tetraacetic acid (EGTA) added to give a final concentration of 0.1 M (pH 7.2), 0.5 mM and 0.1 mM, respectively. Solid ammonium sulfate was added to 50% saturation to the protein solution, it was centrifuged at 15,000×g and the supernatant discarded. This precipitated protein could be stored at -70° C. for at least one month with very little loss of activity. The ammonium sulfate precipitate was dissolved in an minimal amount of 0.06 M potassium phosphate buffer (pH 7.2) containing 0.5 mM dithiothreitol and 0.1 mM EGTA (referred to as 0.06 M phosphate buffer) and dialyzed overnight against 2 liters of the same buffer to remove the ammonium sulfate and to inactivate HMG-CoA lyase [Clinkenbeard, et al., J. Biol. Chem. 250, 3108-3116(1975)].
The dialyzed extract was added to a column of DEAE-52 (Whatman) which had been equilibrated with 0.06 M phosphate buffer (10 mg of protein to 1 ml bed volume of the resin). The DEAE-cellulose was eluted with 0.06 M phosphate buffer until the optical density at 280 nm was essentially zero. This fraction contained the β-ketoacetyl-CoA thiolase activity. The HMG-CoA synthase was eluted from the column with 0.1 M phosphate buffer (pH 7.2) containing 0.5 mM DTT and 0.1 mM EGTA, and was virtually free of all thiolase activity. The protein was precipitated by the addition of ammonium sulfate to give 50% saturation. This solution was stirred for 10 minutes at 4° C. and the precipitate collected by centrifugation at 15,000 rpm for 10 minutes. The supernatant was discarded and the precipitate dissolved in a minimum of 0.06 M phosphate buffer, pH 7.2 (about 10 ml) and the enzyme stored at -80° C.
HMG-CoA Synthase Inhibition Assay
Enzyme protein (ca. […]) was added to a solution containing 117 mM Tris-HCl (pH 8.0), 11.7 mM MgCl2, 1.17 mM ethylenediaminetetraacetic acid (EDTA), 0.58 mM dithiothreitol, and the indicated concentrations of the test compound (added as a 2 mg/ml solution in dimethylsulfoxide). The incubation took place in a volume of 0.085 ml at 30° in a shaking water bath. After 5 minutes, […] of a solution containing acetoacetyl-CoA and 0.1 μCi of 1-[^14 C]-acetyl-CoA was added to give a final concentrations of 0.1 and 0.4 μM, respectively. The incubation was continued for 10 more minutes and the reaction stopped by the addition of […] of the assay mixture to 0.2 ml of 6N HCl in a glass scintillation vial. The vial was heated for 1 hour at 120° after which time 0.2 ml more of 6N HCl was again added to each vial and the heating continued for another hour. Following this, 1.0 ml of 0.9% saline was added to each vial and finally 10 ml of scintillation liquid. Radioactivity was determined in a Packard Tri-Carb liquid scintillation counter. Percent inhibition is calculated by the formula: [formula] IC50 values were determined by plotting the log of the concentration of the test compound verses the percentage inhibition and fitting a straight line to the resulting data by using the least squares method.

SMILES	IC50 [nM]	other results
COC(=O)/C=C(C)/C=C(\C)CC(C)CCCCC1OC(=O)C1C (stereo not shown) [R^1=OCH3, R^2=H, methyl 11-(3-methyl-4-oxo-2-oxetano)-3,5,7-trimethyl-2,4-undecadienoate]	–	inhibition at 6 µM (at 6 × 10^-6 M, read-out: percent inhibition): 22.7%; IC25 (concentration giving 22.7 percent inhibition, read-out: IC25 (printed in the IC50 column, in parentheses)): 6000 nM
COC(=O)/C=C(C)/C=C(\C)CC(C)CCCCC1OC(=O)C1CSC(C)=O (stereo not shown) [R^1=OCH3, R^2=drawing 3, methyl 11-(3-acetylthiomethyl-4-oxo-2-oxetano)-3,5,7-trimethyl-2,4-undecadienoate]	10000	inhibition at 10 µM (at 10^-5 M, read-out: percent inhibition): 47.9%
CC(=C\C(=O)O)/C=C(\C)CC(C)CCCCC1OC(=O)C1CBr (stereo not shown) [R^1=OH, R^2=Br, 11-(3-bromomethyl-4-oxo-2-oxetano)-3,5,7-trimethyl-2,4-undecadienoic acid]	1400	–
CC(=C\C(=O)O)/C=C(\C)CC(C)CCCCC1OC(=O)C1CCl (stereo not shown) [R^1=OH, R^2=Cl, 11-(3-Chloromethyl-4-oxo-2-oxetano)-3,5,7-trimethyl-2,4-undecadienoic acid]	300	–
CC(=C\C(=O)O)/C=C(\C)CC(C)CCCCC1OC(=O)C1CF (stereo not shown) [R^1=OH, R^2=F, 11-(3-fluoromethyl-4-oxo-2-oxetano)-3,5,7,-trimethyl-2,4-undecadienoic acid]	280	–
CC(=C\C(=O)O)/C=C(\C)CC(C)CCCCC1OC(=O)C1C (stereo not shown) [R^1=OH, R^2=H, 11-(3-methyl-4-oxo-2-oxetano)-3,5,7-trimethyl-2,4-undecadienoic acid]	100	–

The next lines start with results.

IC50 [nM]	SMILES	other results
2900	COC(=O)/C=C(C)/C=C(\C)CC(C)CCCCC1OC(=O)C1CC#N (stereo not shown) [R^1=OCH3, R^2=CN, methyl 11-(3-cyanomethyl-4-oxo-2-oxetano)-3,5,7-trimethyl-2,4-undecadienoate]	–
100	COC(=O)/C=C(C)/C=C(\C)CC(C)CCCCC1OC(=O)C1CN=[N+]=[N-] (stereo not shown) [R^1=OCH3, R^2=N3, methyl 11-(3-azidomethyl-4-oxo-2-oxetano)-3,5,7-trimethyl-2,4-undecadienoate]	–
